According to US20060110341A1, “Cosmetic compositions containing Sophora alopecuroides L. extracts” (Unilever Home & Personal Care USA, Division Of Conopco, Inc., priority 2004, published 2006):

System: mushroom tyrosinase (Sigma)
Experiment: Tyrosinase inhibition assay
Type: biochemical
Conditions: for IC50: 0.5 mM tyrosine, pH 7.00, tyrosinase 60.5 U/mL, read-out: IC50 tyrosinase inhibition activity: components
Method: Determination of melanin content within each MelanoDerm was performed by absorbance measurement at 475 nm. IC50 was determined by Tyrosinase inhibition assay. […] The reaction rate in the first 6.5 min is calculated based on the absorbance change at 475 nm.

## C=C(C)C(CC=C(C)C)Cc1c2c(c(O)c3c1OC(c1ccc(O)cc1)C3c1cc(O)cc(O)c1)C(=O)CC(c1ccc(O)cc1O)O2 (stereo not drawn) [Alopecurone A]
  tyrosinase inhibition activity (in words): showing tyrosinase inhibition activity
  IC50: 9 µM

## C=C(C)C(CC=C(C)C)Cc1c2c(c(O)c3c1OC(c1ccc(O)cc1)C3c1cc(O)cc(O)c1)C(=O)CC(c1ccc(O)cc1O)O2 (stereo not drawn) [Alopecurone B]
  tyrosinase inhibition activity (in words): showing tyrosinase inhibition activity
  IC50: 5 µM

## Oc1ccc(O)cc1 [Hydroquinone, reference compound]
  IC50: 36.4 µM
Same value as the μM figure
  IC50 tyrosinase inhibition activity, in brackets by weight: (4 micro-q/ml) micro-g/ml

## Sophoraflavone K
  IC50: 1 µM

## C=C(C)[C@H](CC=C(C)C)Cc1c(O)cc(O)c2c1O[C@H](c1ccc(O)cc1O)CC2=O [Sophoraflavone G]
  IC50: 14 µM

## Sophoraflavone I
  IC50: 15 µM
